Where two headings read alike, the source gives them in different places.
How the values were obtained:
[1] = rats; cited from earlier work
human NTCP = target: T1, human NTCP (Homo sapiens, UniProt Q14973); assay: Uptake in NTCP-transfected HEK293 cells; conditions: 5 µM; 10 min; 37°C; vs mock cells
T1 sequence (Q14973 1-349): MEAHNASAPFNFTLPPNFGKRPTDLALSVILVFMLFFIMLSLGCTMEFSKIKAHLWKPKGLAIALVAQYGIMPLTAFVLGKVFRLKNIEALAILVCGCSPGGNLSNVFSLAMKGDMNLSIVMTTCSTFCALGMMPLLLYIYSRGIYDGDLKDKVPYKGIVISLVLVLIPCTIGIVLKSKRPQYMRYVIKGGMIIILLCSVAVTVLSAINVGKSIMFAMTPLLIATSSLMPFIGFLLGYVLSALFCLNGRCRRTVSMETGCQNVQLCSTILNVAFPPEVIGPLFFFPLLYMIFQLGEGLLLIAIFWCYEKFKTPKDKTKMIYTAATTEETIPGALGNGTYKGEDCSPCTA
Protocol: (§1) OATP1B1-, OATP1B3-, OATP2B1-, NTCP-, OAT1-, and OAT3-transfected HEK293 cells were cultured in DMEM supplemented with 10% FBS, 100 U/mL penicillin-streptomycin at 37°C with 95% relative humidity atmosphere containing 5% CO2. All cells were seeded in 24-well plates at a density of 4 × 10^5 cells/well and cultured for 1–2 days until they reached 80%–90% confluence. Prior to the initiation of uptake studies, the cells were washed twice with HBSS buffer at 37°C. Membrane vesicles were stored at −80°C and thawed at 37°C prior to the initiation of the studies.
(§2) All uptake tests were performed in triplicates. The activities of transporter-transfected HEK293 cells were evaluated using relevant positive substrates and inhibitors. E17G (5 µM, OATP1B1 and OATP1B3), ES (2 µM, OATP2B1), ES (5 µM, OAT3), TCA (10 µM, NTCP), and PAH (20 µM, OAT1) were used as substrates of the transporters. The inhibitors for each transporter were rifampicin (200 µM, OATP1B1 and OATP1B3), erlotinib (10 µM, OATP2B1), CsA (20 µM, NTCP), and probenecid (200 µM, OAT1 and OAT3).
(§3) The cells were washed three times with ice-cold HBSS buffer. […] The total protein concentration was measured using a BCA Protein Assay Kit. The uptake rates of HEK293-OATP1B1, HEK293-OATP1B3, HEK293-OATP2B1, HEK293-NTCP, HEK293-OAT1, HEK293-OAT3, and mock cells were calculated. […]

[2] = cited from earlier work; for median plasma concentration: standard doses
human OAT3 = target: T2, human OAT3 (Homo sapiens, UniProt Q8TCC7); assay: Uptake in OAT3-transfected HEK293 cells; conditions: 5 µM; 10 min; 37°C; vs mock cells
T2 sequence (Q8TCC7 1-542): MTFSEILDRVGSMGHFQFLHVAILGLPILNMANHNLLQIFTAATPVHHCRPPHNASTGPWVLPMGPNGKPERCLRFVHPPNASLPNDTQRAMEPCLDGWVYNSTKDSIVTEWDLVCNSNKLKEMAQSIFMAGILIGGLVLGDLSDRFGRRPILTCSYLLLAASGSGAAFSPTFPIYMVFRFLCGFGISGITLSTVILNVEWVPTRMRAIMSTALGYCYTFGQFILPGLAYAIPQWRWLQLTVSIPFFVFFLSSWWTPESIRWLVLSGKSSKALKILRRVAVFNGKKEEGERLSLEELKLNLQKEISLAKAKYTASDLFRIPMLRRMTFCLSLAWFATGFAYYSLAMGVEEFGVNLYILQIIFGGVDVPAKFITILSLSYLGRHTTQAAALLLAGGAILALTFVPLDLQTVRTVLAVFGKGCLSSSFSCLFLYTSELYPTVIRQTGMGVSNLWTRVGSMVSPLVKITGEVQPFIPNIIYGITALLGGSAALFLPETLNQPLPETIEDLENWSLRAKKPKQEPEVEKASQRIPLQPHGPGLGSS
Protocol: as §1, §2, §3

OAT1 = conditions: cited from earlier work
OCT2 = conditions: cited from earlier work
MATE1 = conditions: cited from earlier work
[3] = thrombocytopenic patients with moderate renal failure

In the case of `CC(=O)NC[C@H]1CN(c2ccc(N3CCOCC3)c(F)c2)C(=O)O1` [Linezolid], the “mean recovery of linezolid radioactivity in excreta” value [1] is given as “over 95%”, the “substrate for NTCP” value (human NTCP) is given as “not a substrate” and the “administered dose excreted in the urine as the parent drug” value [2] is given as 35%. The “apparent volume of distribution (Vd)” value [2] was 40 to 50 L, the “elimination half-life (t1/2)” value [2] was 5 to 7 h and the “total clearance (CL)” value [2] was 80 mL/min. For the same compound, the median plasma concentration ([2]; controls without liver cirrhosis) was 2.70 mg/L, the “mean recovery of linezolid radioactivity in excreta” value ([2]; healthy volunteers) was 93.8% and the “radioactivity excreted in the feces” value ([2]; healthy volunteers) was 9.9%. The “radioactivity excreted in the urine” value ([2]; healthy volunteers) was 83.9%, the “share of dosed linezolid in the urine” value ([2]; humans) was “more than 30%” and the CL ([2]; patient with acute-on-chronic liver failure) was 1.54 L/h. The median plasma concentration ([2]; patients with liver cirrhosis) was 20.6 mg/L, the median trough concentration ([2]; patients with mild hepatic impairment) was 5.51 mg/L and the median trough concentration ([2]; patients with moderate hepatic impairment) was 6.70 mg/L. The median trough concentration ([2]; patients with severe hepatic impairment) was 20.7 mg/L, the CL ([2]; patients without concomitant liver failure) was 6.26 L/h and the AUC0-24 [2, 3] was 513.1 to 994.6 µg·h/mL. The trough concentration [2, 3] was 14.4 to 35.6 mg/L, the “substrate for OAT3” value (human OAT3) was “not a substrate” and the “inhibitor of OAT1” value (OAT1) was “inhibitor”. The “substrate for OCT2” value (OCT2) was “not a substrate” and the “substrate for MATE1” value (MATE1) was “not a substrate”.

— PMC12057336 (Antimicrobial Agents and Chemotherapy, 2025)
